Assay results as given in ChEMBL document CHEMBL1208744, “Petiolins J-M, prenylated acylphloroglucinols from Hypericum pseudopetiolatum var. kiusianum” (Bioorg Med Chem Lett, 2010).
Converted amounts (≈) assume the structure as drawn.

Key:
L1210 = test: Cytotoxicity against mouse L1210 cells; type: functional, cell-based
KB = test: Cytotoxicity against human KB cells; type: functional; conditions: read-out: MIC
Cryptococcus neoformans = test: Antimicrobial activity against Cryptococcus neoformans; type: functional
[1] = system: Trichophyton mentagrophytes; test: Antimicrobial activity against Trichophyton mentagrophytes; type: functional
Micrococcus luteus = test: Antimicrobial activity against Micrococcus luteus; type: functional

| MIC (Cryptococcus neoformans) | MIC [1] | MIC (Micrococcus luteus) | Compound | IC50 (L1210) | cytotoxic concentration (KB) |
| --- | --- | --- | --- | --- | --- |
| 16 µg/mL (≈ 44.1 µM) | 16 µg/mL (≈ 44.1 µM) | 8 µg/mL (≈ 22.1 µM) | CC(C)=CCC[C@]1(C)Oc2c(c(O)c(C)c(O)c2C(=O)C(C)C)C[C@H]1O [PETIOLIN J] | > 10 µg/mL | > 10 µg/mL |
| – | – | – | CCC(C)C(=O)C1=C2O[C@@H]([C@@](C)(O)CCC=C(C)C)C[C@]2(CC=C(C)C)C(=O)C(C)(C)C1=O (stereo partly specified) [PETIOLIN L] | > 10 µg/mL | > 10 µg/mL |
| – | – | – | CC(C)=CCC[C@](C)(O)[C@H]1C[C@@]2(CC=C(C)C)C(=O)C(C)(C)C(=O)C(C(=O)C(C)C)=C2O1 [PETIOLIN M] | > 10 µg/mL | > 10 µg/mL |
| – | – | – | Cc1c(O)c(C(=O)C(C)C)c2c3c1OC(C)(C)[C@@H]1CC[C@@](C)(C[C@@H]31)O2 [PETIOLIN K] | > 10 µg/mL | > 10 µg/mL |
